The values that follow come from patent US20140288043A1, “PYRAZOLOPYRIDINE COMPOUNDS” (Genentech, Inc., priority 2013, published 2014).

As usually defined, the Ki is a measure of affinity in units of concentration, obtained from inhibition or displacement.

Chain of LRRK2 (Q5S007 whole entry G2019S, form open, the tested form may be a part): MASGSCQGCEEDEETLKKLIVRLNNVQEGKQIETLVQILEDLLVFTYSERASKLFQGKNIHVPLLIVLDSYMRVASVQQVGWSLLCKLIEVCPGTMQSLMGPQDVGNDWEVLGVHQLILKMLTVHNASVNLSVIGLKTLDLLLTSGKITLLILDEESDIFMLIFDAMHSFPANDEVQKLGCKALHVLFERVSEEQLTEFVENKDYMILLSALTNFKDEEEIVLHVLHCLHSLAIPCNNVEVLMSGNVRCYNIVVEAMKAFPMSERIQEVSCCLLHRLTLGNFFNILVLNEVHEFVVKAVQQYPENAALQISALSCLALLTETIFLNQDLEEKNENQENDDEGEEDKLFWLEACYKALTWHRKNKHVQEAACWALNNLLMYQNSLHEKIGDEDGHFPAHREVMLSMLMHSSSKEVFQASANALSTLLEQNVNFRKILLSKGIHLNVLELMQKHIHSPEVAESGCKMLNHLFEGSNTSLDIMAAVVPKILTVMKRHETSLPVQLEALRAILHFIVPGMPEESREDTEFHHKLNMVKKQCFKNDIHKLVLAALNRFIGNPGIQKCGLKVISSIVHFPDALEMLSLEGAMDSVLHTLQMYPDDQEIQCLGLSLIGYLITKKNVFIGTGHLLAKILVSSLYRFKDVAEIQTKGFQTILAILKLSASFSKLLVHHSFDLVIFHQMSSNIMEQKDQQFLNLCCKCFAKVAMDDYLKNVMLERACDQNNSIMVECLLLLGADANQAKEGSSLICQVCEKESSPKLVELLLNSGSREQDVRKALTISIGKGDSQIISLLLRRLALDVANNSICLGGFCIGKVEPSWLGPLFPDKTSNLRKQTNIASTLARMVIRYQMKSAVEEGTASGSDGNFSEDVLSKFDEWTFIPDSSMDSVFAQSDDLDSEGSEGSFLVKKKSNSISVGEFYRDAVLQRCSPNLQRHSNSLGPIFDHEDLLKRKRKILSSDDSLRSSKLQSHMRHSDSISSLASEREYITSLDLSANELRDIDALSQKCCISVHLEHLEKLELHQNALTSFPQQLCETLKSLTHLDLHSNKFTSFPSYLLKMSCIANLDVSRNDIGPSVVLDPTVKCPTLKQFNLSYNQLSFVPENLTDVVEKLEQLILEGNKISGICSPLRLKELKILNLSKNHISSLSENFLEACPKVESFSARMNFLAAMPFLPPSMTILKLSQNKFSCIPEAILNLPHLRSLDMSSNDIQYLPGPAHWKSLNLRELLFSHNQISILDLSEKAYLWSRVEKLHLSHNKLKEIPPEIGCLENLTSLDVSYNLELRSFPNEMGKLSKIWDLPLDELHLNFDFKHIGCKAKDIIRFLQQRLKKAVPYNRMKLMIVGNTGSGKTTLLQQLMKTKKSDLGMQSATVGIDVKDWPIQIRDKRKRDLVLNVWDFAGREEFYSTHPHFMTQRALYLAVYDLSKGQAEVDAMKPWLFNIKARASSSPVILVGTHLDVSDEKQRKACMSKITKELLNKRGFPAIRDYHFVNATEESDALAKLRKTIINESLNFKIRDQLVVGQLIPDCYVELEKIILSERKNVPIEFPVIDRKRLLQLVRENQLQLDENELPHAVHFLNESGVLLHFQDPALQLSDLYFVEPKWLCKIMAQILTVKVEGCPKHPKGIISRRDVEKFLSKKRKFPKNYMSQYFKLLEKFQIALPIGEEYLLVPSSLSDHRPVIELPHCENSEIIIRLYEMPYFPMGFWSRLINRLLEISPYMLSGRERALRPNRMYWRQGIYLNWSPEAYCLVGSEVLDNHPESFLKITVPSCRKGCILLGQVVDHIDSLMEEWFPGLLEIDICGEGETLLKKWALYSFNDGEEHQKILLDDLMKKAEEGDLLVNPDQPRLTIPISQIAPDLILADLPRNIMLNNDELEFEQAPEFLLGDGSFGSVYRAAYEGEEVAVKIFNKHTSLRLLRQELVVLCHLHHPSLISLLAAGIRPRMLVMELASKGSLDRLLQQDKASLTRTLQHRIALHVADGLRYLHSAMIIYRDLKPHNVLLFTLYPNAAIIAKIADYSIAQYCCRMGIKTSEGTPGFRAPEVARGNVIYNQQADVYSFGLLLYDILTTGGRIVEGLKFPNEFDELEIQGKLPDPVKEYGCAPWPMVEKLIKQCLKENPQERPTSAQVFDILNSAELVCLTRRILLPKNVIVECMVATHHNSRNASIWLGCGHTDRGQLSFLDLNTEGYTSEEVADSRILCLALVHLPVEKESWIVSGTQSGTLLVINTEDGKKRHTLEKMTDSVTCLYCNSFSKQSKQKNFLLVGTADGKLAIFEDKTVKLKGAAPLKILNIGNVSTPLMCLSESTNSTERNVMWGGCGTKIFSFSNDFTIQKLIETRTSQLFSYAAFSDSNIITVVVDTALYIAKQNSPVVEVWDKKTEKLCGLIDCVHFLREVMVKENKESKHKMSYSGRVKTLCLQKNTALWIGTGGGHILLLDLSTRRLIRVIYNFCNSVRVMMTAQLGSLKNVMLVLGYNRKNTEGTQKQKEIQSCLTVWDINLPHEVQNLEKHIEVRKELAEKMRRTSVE

The target of this experiment is LRRK2 (Homo sapiens, UniProt Q5S007). Nature of the experiment: LRRK2 protein kinase assay ([γ-33P] ATP, peptide substrate), KI values of Table 1. The format is biochemical. The conditions noted are these: LRRK2 affinity values. The text has this:
All LRRK2 protein kinases were of human origin and were sourced from Invitrogen Corporation (Carlsbad, Calif. 92008 USA) unless otherwise indicated. The active mutant used was recombinant human, catalytic domain (amino acids 970-2527) containing a G2019S mutation, GST-tagged, expressed in insect cells (Invitrogen Cat#PV4881). The wild type used was recombinant human, catalytic domain (amino acids 970-2527) GST-tagged, expressed in insect cells (Invitrogen Cat#PV4873). The kinase dead mutant used was recombinant human, catalytic domain (amino acids 970-2527) containing a D1994A mutation, GST-tagged, expressed in insect cells (Invitrogen Cat#PM4041AE). No special measures were taken to activate any of the kinases.
All assays were carried out at room temperature (˜21° C.) and were linear with respect to time and enzyme concentration under the conditions used. Assays were performed for 180 min in a 96 well format. LRRK2 was present at a concentration of approximately 5 nM. The enzyme was diluted and assayed in 50 mM Tris-HCl pH7.5, 0.1 mM EGTA, 1 mM DTT and 10 mM MgCl2. The concentration of magnesium chloride in the assay was 10 mM. The [γ-33P] ATP (0.4 μCi/well) was used at 134 uM for G2019S mutant and at 57 μM for the wild type kinase in order to be at Km. The peptide substrate in the assay was […] at 100 μM.
The assays were initiated with Mg/ATP and stopped by the addition of 25 μl/well 50% orthophosphoric acid. Reactions were harvested onto Whatman P81 Unifilter Plates (Fisher Scientific. Loughborough, LE115RG, UK. Cat# FDU-105-020U) using a Tomtec harvester. (Tomtec Hamden, Conn. 06514. USA) Plates were counted using a Perkin Elmer Top Count NX7. (Perkin Elmer, Shelton Conn. 06484-4794 USA)
IC50 values of inhibitors were determined after carrying out assays at 10 different concentrations of each compound in duplicate.
`CS(=O)(=O)c1ccnc(-c2n[nH]c3ccnc(NC4CCOCC4)c23)c1` [Compound 69, 3-(4-(methylsulfonyl)pyridin-2-yl)-N-(tetrahydro-2H-pyran-4-yl)-1H-pyrazolo[4,3-c]pyridin-4-amine] yielded a Ki of 6.8 nM.
Under `CC(C)Nc1nccc2[nH]nc(-c3cc(C4CCCO4)ccn3)c12` (stereo not drawn) [Compound 53, N-isopropyl-3-(4-(tetrahydrofuran-2-yl)pyridin-2-yl)-1H-pyrazolo[4,3-c]pyridin-4-amine] stands 4.4 nM; under `CC1CC(Nc2nccc3[nH]nc(-c4cc(C(F)(F)F)ncn4)c23)CC(C)O1` (stereo not drawn) [Compound 68, N-(2,6-dimethyltetrahydro-2H-pyran-4-yl)-3-(6-(trifluoromethyl)pyrimidin-4-yl)-1H-pyrazolo[4,3-c]pyridin-4-amine], 23.3 nM; under `FC1(F)CCC(Nc2nccc3[nH]nc(-c4ccccn4)c23)CC1` [Compound 34, N-(4,4-difluorocyclohexyl)-3-(pyridin-2-yl)-1H-pyrazolo[4,3-c]pyridin-4-amine], 6.4 nM.
`CC(C)Nc1nccc2[nH]nc(-c3cc(C4CCN(C)CC4)ccn3)c12` [Compound 40, N-isopropyl-3-(4-(1-methylpiperidin-4-yl)pyridin-2-yl)-1H-pyrazolo[4,3-c]pyridin-4-amine] came in with a Ki of 8.4 nM.
Under `Cc1nn(C)cc1-c1ccnc(-c2n[nH]c3ccnc(NC(C)C)c23)c1` [Compound 45, 3-(4-(1,3-dimethyl-1H-pyrazol-4-yl)pyridin-2-yl)-N-isopropyl-1H-pyrazolo[4,3-c]pyridin-4-amine] stands 1.3 nM; under `CC(C)Nc1nccc2[nH]nc(-c3cc(S(C)(=O)=O)ccn3)c12` [Compound 72, N-isopropyl-3-(4-(methylsulfonyl)pyridin-2-yl)-1H-pyrazolo[4,3-c]pyridin-4-amine], 6 nM.
For `FC(F)(F)c1cc(-c2n[nH]c3ccnc(NCC4CC4)c23)ncn1` [Compound 65, N-(cyclopropylmethyl)-3-(6-(trifluoromethyl)pyrimidin-4-yl)-1H-pyrazolo[4,3-c]pyridin-4-amine], the Ki was found to be 20.2 nM.
Under `CC(C)Nc1nccc2[nH]nc(-c3cc(N4C[C@@H](F)[C@H](F)C4)ccn3)c12` [Compound 59, 3-(4-((3R,4R)-3,4-difluoropyrrolidin-1-yl)pyridin-2-yl)-N-isopropyl-1H-pyrazolo[4,3-c]pyridin-4-amine] stands 3.9 nM; under `FC(F)(F)c1ccnc(-c2n[nH]c3ccnc(NC4CCOCC4)c23)c1` [Compound 23, N-(tetrahydro-2H-pyran-4-yl)-3-(4-(trifluoromethyl)pyridin-2-yl)-1H-pyrazolo[4,3-c]pyridin-4-amine], 0.4 nM.
Under `CC(C)Nc1nccc2[nH]nc(-c3cc(-c4cnn(C)c4)ccn3)c12` [Compound 35, N-isopropyl-3-(4-(1-methyl-1H-pyrazol-4-yl)pyridin-2-yl)-1H-pyrazolo[4,3-c]pyridin-4-amine] stands 0.8 nM; under `CC(C)S(=O)(=O)c1ccnc(-c2n[nH]c3ccnc(NC4CCOCC4)c23)c1` [Compound 75, 3-(4-(isopropylsulfonyl)pyridin-2-yl)-N-(tetrahydro-2H-pyran-4-yl)-1H-pyrazolo[4,3-c]pyridin-4-amine], 23.2 nM.
Under `CC(C)n1cc(-c2n[nH]c3ccnc(NC4CCOCC4)c23)nn1` [Compound 5, 3-(1-isopropyl-1H-1,2,3-triazol-4-yl)-N-(tetrahydro-2H-pyran-4-yl)-1H-pyrazolo[4,3-c]pyridin-4-amine] stands 1.7 nM; under `CC(C)Nc1nccc2[nH]nc(-c3cc(N4CCOCC4)ccn3)c12` [Compound 3, N-isopropyl-3-(4-morpholinopyridin-2-yl)-1H-pyrazolo[4,3-c]pyridin-4-amine], 1.6 nM; under `CCc1cc(-c2n[nH]c3ccnc(NC4CCOCC4)c23)nn1C` [Compound 1, 3-(5-ethyl-1-methyl-1H-pyrazol-3-yl)-N-(tetrahydro-2H-pyran-4-yl)-1H-pyrazolo[4,3-c]pyridin-4-amine], 0.5 nM.
As to `CC(C)Nc1nccc2[nH]nc(-c3cc(C4CCOCC4)ccn3)c12` [Compound 39, N-isopropyl-3-(4-(tetrahydro-2H-pyran-4-yl)pyridin-2-yl)-1H-pyrazolo[4,3-c]pyridin-4-amine], the affinity corresponds to a Ki of 3.9 nM.
The compound `CCNc1nccc2[nH]nc(-c3cn(C(C)C)nn3)c12` [Compound 9, N-ethyl-3-(1-isopropyl-1H-1,2,3-triazol-4-yl)-1H-pyrazolo[4,3-c]pyridin-4-amine] yielded a Ki of 13.1 nM.
Under `CCNc1nccc2[nH]nc(-c3ccncn3)c12` [Compound 19, N-ethyl-3-(pyrimidin-4-yl)-1H-pyrazolo[4,3-c]pyridin-4-amine] stands 152 nM; under `O=C(c1ccnc(-c2n[nH]c3ccnc(NC4CCOCC4)c23)c1)N1CCC1` [Compound 63, azetidin-1-yl(2-(4-((tetrahydro-2H-pyran-4-yl)amino)-1H-pyrazolo[4,3-c]pyridin-3-yl)pyridin-4-yl)methanone], 14.7 nM.
Under `CCOc1ccnc(-c2n[nH]c3ccnc(NC4CCOCC4)c23)c1` [Compound 50, 3-(4-ethoxypyridin-2-yl)-N-(tetrahydro-2H-pyran-4-yl)-1H-pyrazolo[4,3-c]pyridin-4-amine] stands 2.2 nM.
Under `CN(C)C(=O)c1ccnc(-c2n[nH]c3ccnc(NC4CCOCC4)c23)c1` [Compound 52, N,N-dimethyl-2-(4-((tetrahydro-2H-pyran-4-yl)amino)-1H-pyrazolo[4,3-c]pyridin-3-yl)isonicotinamide] stands 37.2 nM; under `CC(C)Nc1nccc2[nH]nc(-c3cc(C(=O)N(C)C)ncn3)c12` [Compound 62, 6-(4-(isopropylamino)-1H-pyrazolo[4,3-c]pyridin-3-yl)-N,N-dimethylpyrimidine-4-carboxamide], 193 nM.
Regarding `c1ccc(-c2n[nH]c3ccnc(NC4CCOCC4)c23)nc1` [Compound 17, 3-(pyridin-2-yl)-N-(tetrahydro-2H-pyran-4-yl)-1H-pyrazolo[4,3-c]pyridin-4-amine], the inhibitory constant (Ki) was determined as 3.1 nM.
Under `CC(C)Nc1nccc2[nH]nc(-n3cc(C(F)(F)F)cn3)c12` [Compound 32, N-isopropyl-3-(4-(trifluoromethyl)-1H-pyrazol-1-yl)-1H-pyrazolo[4,3-c]pyridin-4-amine] stands 9.1 nM; under `Cc1cc(S(C)(=O)=O)cc(-c2n[nH]c3ccnc(NC(C)C)c23)n1` [Compound 76, N-isopropyl-3-(6-methyl-4-(methylsulfonyl)pyridin-2-yl)-1H-pyrazolo[4,3-c]pyridin-4-amine], 4.5 nM.
Under `CC(C)Nc1nccc2[nH]nc(-c3cc(C(F)(F)F)ncn3)c12` [Compound 24, N-isopropyl-3-(6-(trifluoromethyl)pyrimidin-4-yl)-1H-pyrazolo[4,3-c]pyridin-4-amine] stands 9.7 nM; under `Cc1nc(-c2n[nH]c3ccnc(NC4CCOCC4)c23)cc(C(F)(F)F)n1` [Compound 71, 3-(2-methyl-6-(trifluoromethyl)pyrimidin-4-yl)-N-(tetrahydro-2H-pyran-4-yl)-1H-pyrazolo[4,3-c]pyridin-4-amine], 6.7 nM.
